Legend:
[1] = oral bioavailability and pharmacokinetics in rats; assay type: in vivo; details: relative to amorphous and crystalline Compound A
[2] = oral bioavailability and pharmacokinetics in dogs; assay type: in vivo; details: relative to amorphous and crystalline Compound A
[3] = oral absorption and pharmacokinetics in animal models; assay type: in vivo; details: compared to crystalline Compound A per se
From the text: The present invention is directed to a pharmaceutically acceptable alkali metal salt of an HIV integrase inhibitor.

[4] = target: recombinant integrase (HIV integrase) (Human immunodeficiency virus type 1 group M subtype B, UniProt P04585); details: strand transfer assay of Example 193 of WO 02/30930
From the text: The strand transfer assay is described in Example 193 of WO 02/30930.

[5] = system: acute HIV infection of T-lymphoid cells; assay: assay for the inhibition of acute HIV infection of T-lymphoid cells; assay type: cell-based; details: in accordance with Vacca et al., PNAS 1994, 91: 4096-4100
From the text: Compound A is an inhibitor of HIV integrase.

Q: Which oral bioavailability [1] does the source give for O=C(NCc1ccc(F)cc1)c1nc(N2CCCCS2(=O)=O)c2cccnc2c1[O-].[Na+] [crystalline sodium salt of Compound A, Sodium salt of 5-(1,1-Dioxido-1,2-thiazinan-2-yl)-N-(4-fluorobenzyl)-8-hydroxy-1,6-naphthyridine-7-carboxamide] here?
A: superior oral bioavailability

Q: What about the “pharmacokinetics (e.g., Cmax and AUC)” value [1] of the same molecule?
A: improved pharmacokinetics

Q: And the oral bioavailability [2]?
A: superior oral bioavailability

Q: What about the “pharmacokinetics (e.g., Cmax and AUC)” value [2] of the same molecule?
A: improved pharmacokinetics

Q: What about the oral absorption [3] of the same molecule?
A: superior oral absorption

Q: What about the pharmacokinetics [3] of the same molecule?
A: improved pharmacokinetics

Q: Which results are given for O=C(NCc1ccc(F)cc1)c1nc(N2CCCCS2(=O)=O)c2cccnc2c1O [Compound A, 5-(1,1-dioxido-1,2-thiazinan-2-yl)-N-(4-fluorobenzyl)-8-hydroxy-1,6-naphthyridine-7-carboxamide]?
A: inhibition of integrase strand transfer [4]: potent inhibitor; inhibition of acute HIV infection of T-lymphoid cells [5]: active

Source: patent publication US6924282B2, “Sodium salt of an HIV integrase inhibitor” (Merck & Co., Inc., priority 2001, dated 2005)
